Read-outs that look alike come from different tables or passages of the source.
Key:
[1] = molecular target: T1, human VDR (Homo sapiens, UniProt P11473); assay: VDR activation (transcription activation assay; COS cells cotransfected with human VDR and VDRE3-luciferase reporter); assay type: cell-based; settings: human VDR (pSG5), VDRE3 rat osteocalcin / tk promoter / luciferase reporter, concentration giving half-maximal activity (8-10 fold luciferase induction), read-out: Vitamin D Receptor Activation ED50
T1 construct: expressed in transfected cells; host or cells: COS cells
T1 sequence (P11473 1-427): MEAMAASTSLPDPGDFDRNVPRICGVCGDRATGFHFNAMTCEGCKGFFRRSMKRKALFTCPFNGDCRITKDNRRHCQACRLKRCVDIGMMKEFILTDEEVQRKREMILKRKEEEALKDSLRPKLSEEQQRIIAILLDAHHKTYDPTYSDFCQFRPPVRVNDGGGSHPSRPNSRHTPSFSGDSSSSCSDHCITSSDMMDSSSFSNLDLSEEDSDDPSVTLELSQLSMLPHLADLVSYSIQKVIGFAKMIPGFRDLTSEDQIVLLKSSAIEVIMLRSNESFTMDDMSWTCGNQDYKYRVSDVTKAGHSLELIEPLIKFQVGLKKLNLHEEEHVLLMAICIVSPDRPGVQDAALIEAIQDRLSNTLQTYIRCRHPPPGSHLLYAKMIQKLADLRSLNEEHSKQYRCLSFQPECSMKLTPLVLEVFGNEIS
Description: In order to measure the activation of the vitamin D receptor (VDR) by vitamin D analogs in cells a transcription activation assay was used. COS cells were cotransfected with the human VDR (expressed in pSG5) and a reporter gene containing three response elements (VDRE3) from the rat osteocalcin gene, the thymidine kinase basal promoter, and the luciferase reporter gene.

[2] = Calcium liability (tolerance test in mice); settings: mouse, in vivo, sc
Description: This routine test gives a global picture of calcemic liability. Profound changes in calcium homeostasis strongly affect the weight development of the animals. This parameter was used as a primary test for tolerance. Mice (25-30 g body weight.) received daily subcutaneous administrations of the vitamin D derivative for 4 consecutive days. Body weight was registered just before and at the end of a 5 day treatment period.

[3] = mice 25-30 g, daily subcutaneous administration for 4 consecutive days, body weight before and at end of 5 day treatment period, read-out: HTD in mice (highest tolerated dose, dose which results in zero weight gain)

| Structure (SMILES) | EC50 [1] [nM] | MTD at 120 h [2] [mg/kg] | MTD at 120 h [2, 3] [mg/kg] |
| --- | --- | --- | --- |
| C=C1/C(=C\C=C2/CCC[C@]3(C)[C@@H]([C@H](C)COC(=O)CC(C)(O)CC)CC[C@@H]23)C[C@@H](O)C[C@@H]1O (mixture of isomers) [Example 29, 1:1 Mixture of (R)-and-(S)-3-hydroxy-3-methyl-pentanoic acid-(5Z,7E)-(1S,3R,20S)-1,3-dihydroxy-20-methyl-9,10-seco-pregna-5,7,10 (19)-trien-21-yl ester] | 2.5 | 7 |  |
| C=C1/C(=C\C=C2/CCC[C@]3(C)[C@@H]([C@H](C)CCCC(C)(C)O)CC[C@@H]23)C[C@@H](O)C[C@@H]1O [Calcitriol, calcitriol, reference compound] |  |  | 0.0005 |
| C[C@H](C(=O)OCC1(O)CCCC1)[C@H]1CC[C@H]2/C(=C/C=C3C[C@@H](O)C[C@H](O)C3)CCC[C@]12C [Example 7, (7E)-(1R,3R,20S)-1,3-Dihydroxy-20-methyl-19-nor-9,10-seco-pregna-5,7-dien-21-oic acid 1-hydroxy-cyclopentylmethyl ester] | 18 |  | > 5 |
| C[C@H](C(=O)OCC1(O)CCCCC1)[C@H]1CC[C@H]2/C(=C/C=C3C[C@@H](O)C[C@H](O)C3)CCC[C@]12C [Example 8, (7E)-(1R,3R,20S)-1,3-Dihydroxy-20-methyl-19-nor-9,10-seco-pregna-5,7-dien-21-oic acid 1-hydroxy-cyclohexyl methyl ester] | 38 |  | 1 |
| C=C1/C(=C\C=C2/CCC[C@]3(C)[C@@H]([C@H](C)C(=O)OCC4(O)CCCCC4)CC[C@@H]23)C[C@@H](O)C[C@@H]1O [Example 9, (5Z,7E)-(1R,3R,20S)-1,3-Dihydroxy-20-methyl-9,10-seco-pregna-5,7,10-trien-21-oic acid 1-hydroxy-cyclohexylmethyl ester] | 5.6 |  | 1 |
| C[C@H](C(=O)OCC1(O)CCCCCC1)[C@H]1CC[C@H]2/C(=C/C=C3C[C@@H](O)C[C@H](O)C3)CCC[C@]12C [Example 10, (7E)-(1R,3R,20S)-1,3-Dihydroxy-20-methyl-19-nor-9,10-seco-pregna-5,7-dien-21-oic acid 1-hyddroxy-cycloheptylmethyl ester] | 31 |  | > 6 |
| C[C@H](C(=O)OCCC1(O)CCCC1)[C@H]1CC[C@H]2/C(=C/C=C3C[C@@H](O)C[C@H](O)C3)CCC[C@]12C [Example 11, (7E)-(1R,3R,20S)-1,3-Dihydroxy-20-methyl-19-nor-9,10-seco-pregna-5,7-dien-21-oic acid 2-(1-hyddroxy-cyclopentyl)-ethyl ester] | 180 |  | > 6 |
| C=C1/C(=C\C=C2/CCC[C@]3(C)[C@@H]([C@@H](C)COC(=O)C(C)(C)C)CC[C@@H]23)C[C@@H](O)C[C@@H]1O [Example 19, 2,2-Dimethyl-propionic acid-(5Z,7E)-(1S,3R,20R)-1,3-dihydroxy-20-methyl-9,10-seco-pregna-5,7,10 (19)-trien-21-yl ester] | 0.28 | > 6 |  |
| C=C1/C(=C\C=C2/CCC[C@]3(C)[C@@H]([C@@H](C)COC(=O)C(C)(C)O)CC[C@@H]23)C[C@@H](O)C[C@@H]1O [Example 20, 2-Hydroxy-2-methyl-propionic acid-(5Z,7E)-(1S,3R,20R)-1,3-dihydroxy-20-methyl-9,10-seco-pregna-5,7,10 (19)-trien-21-yl ester] | 0.82 | > 10 |  |
| C[C@@H](COC(=O)C(C)(C)O)[C@H]1CC[C@H]2/C(=C/C=C3C[C@@H](O)C[C@H](O)C3)CCC[C@]12C [Example 21, 2-Hydroxy-2-methyl-propionic acid-(7E)-(1R,3R,20R)-1,3-dihydroxy-20-methyl-19-nor-9,10-seco-pregna-5,7-dien-21-yl ester] | 0.55 |  | > 9 |
| C=C1/C(=C\C=C2/CCC[C@]3(C)[C@@H]([C@H](C)COC(=O)C(C)(C)C)CC[C@@H]23)C[C@@H](O)C[C@@H]1O [Example 22, 2,2-Dimethyl-propionic acid (5Z,7E)-(1R,3R)-1,3-dihydroxy-23,24-dinor-9,10-secochola-5,7-dien-22-yl ester] | 141 | 9 |  |
| C=C1/C(=C\C=C2/CCC[C@]3(C)[C@@H]([C@H](C)COC(=O)C(C)(C)O)CC[C@@H]23)C[C@@H](O)C[C@@H]1O [Example 23, 2-Hydroxy-2-methyl-propionic acid-(5Z,7E)-(1S,3R,20S)-1,3-dihydroxy-20-methyl-9,10-seco-pregna-5,7,10 (19)-trien-21-yl ester] | 83 | > 11 |  |
| C=C1/C(=C\C=C2/CCC[C@]3(C)[C@@H]([C@H](C)COC(=O)C(O)(CC)CC)CC[C@@H]23)C[C@@H](O)C[C@@H]1O [Example 24, 2-Ethyl-2-hydroxy-butyric acid-(5Z,7E)-(1S,3R,20S)-1,3-dihydroxy-20-methyl-9,10-seco-pregna-5,7,10 (19)-trien-21-yl ester] | 18 |  | 2.5 |
| C=C1/C(=C\C=C2/CCC[C@]3(C)[C@@H]([C@H](C)COC(=O)CC(C)(O)C(F)(F)F)CC[C@@H]23)C[C@@H](O)C[C@@H]1O (stereo partly drawn) [Example 28] | 0.53 |  | 0.5 |

From patent publication US5827883A, “Dermatological use of vitamin D derivatives” (priority 1995, dated 1998)
